From ChEMBL document CHEMBL6153025, “Multidrug-resistant bacteria quorum-sensing inhibitors: A particular focus on Pseudomonasaeruginosa” (Eur J Med Chem, 2025)

What was measured:
Pseudomonas aeruginosa [1] = assay: Antibacterial activity against Pseudomonas aeruginosa ATCC 15442 assessed as reduction in bacterial cell growth incubated for 24 hrs by two fold serial microdilution method; assay type: functional
Pseudomonas aeruginosa [2] = assay: Antivirulence activity in Pseudomonas aeruginosa PAO1 assessed as reduction in pyocyanin production at 10 uM incubated for 24 hrs by absorbance based analysis relative to control; assay type: functional; design: scale not given: the % may be the effect or the level left
[3] = Inhibition of quorum sensing system in Pseudomonas aeruginosa PAO1 expressing lasB-gfp
Pseudomonas aeruginosa [4] = assay: Antibacterial activity against Pseudomonas aeruginosa PAO1-L; assay type: functional, organism-based
Pseudomonas aeruginosa [5] = assay: Antibiofilm activity against Pseudomonas aeruginosa PAO1 assessed as inhibition of biofilm formation at 100 uM relative to control; assay type: functional; design: scale not given: the % may be the effect or the level left
Pseudomonas aeruginosa [6] = assay: Antibacterial activity against Pseudomonas aeruginosa ATCC 27853 assessed as bacterial growth inhibition by agar diffusion assay; assay type: functional
Pseudomonas aeruginosa [7] = assay: Antibiofilm activity against Pseudomonas aeruginosa PA14 assessed as reduction in biofilm biomass production at 18 ug/ml relative to control; assay type: functional; design: scale not given: the % may be the effect or the level left; details: dose 18 µg/ml
[8] = Inhibition of quorum sensing system in Pseudomonas aeruginosa PAO1
Bacillus subtilis = assay: Antibacterial activity against Bacillus subtilis; assay type: functional
Staphylococcus aureus [9] = assay: Antibacterial activity against Methicillin-resistant Staphylococcus aureus; assay type: functional
Staphylococcus aureus [10] = assay: Antibacterial activity against Methicillin-sensitive Staphylococcus aureus; assay type: functional
Escherichia coli = assay: Antibacterial activity against Escherichia coli; assay type: functional
Pseudomonas aeruginosa [11] = assay: Antibacterial activity against Pseudomonas aeruginosa; assay type: functional
Bacillus pumilus = assay: Antibacterial activity against Bacillus pumilus; assay type: functional
Pseudomonas aeruginosa [12] = assay: Anti-virulence effect in Pseudomonas aeruginosa PAO1 assessed as inhibition of rhamnolipid production at 10 uM relative to control; assay type: functional; design: scale not given: the % may be the effect or the level left
Pseudomonas aeruginosa [13] = assay: Anti-virulence activity against Pseudomonas aeruginosa PAO1-L assessed as reduction in pyocyanin production at 10 uM incubated for 24 hrs by absorbance based analysis relative to control; assay type: functional; design: scale not given: the % may be the effect or the level left
Pseudomonas aeruginosa [14] = assay: Antivirulence activity against Pseudomonas aeruginosa PAO1 assessed as reduction in pyocyanin level at 10 uM relative to control; assay type: functional; design: scale not given: the % may be the effect or the level left

CCCCCCCCNc1ccnc2cc(Cl)ccc12
MIC (Pseudomonas aeruginosa [1]): > 2 µM | Activity (Pseudomonas aeruginosa [2]): 80%

N#CCc1ccc(OCC(N)Cn2cnc3ccc(Cl)cc3c2=O)cc1 (stereo not given)
IC50 [3]: 2.4 µM | IC50 (Pseudomonas aeruginosa [4]): 4.3 µM

Clc1ccc2c(NCCCCCCCCNCc3csc4ccccc34)ccnc2c1
MIC (Pseudomonas aeruginosa [1]): > 2 µM | Activity (Pseudomonas aeruginosa [2]): 97%

O=c1cc(-c2ccc(O)c(O)c2)oc2c([C@H]3C[C@@H](O)[C@H](O)[C@@H](CO)O3)c(O)cc(O)c12
Activity (Pseudomonas aeruginosa [5]): 18%

O=C(CSc1ccc2ccccc2n1)c1ccccc1
MIC (Pseudomonas aeruginosa [6]): > 128 µg/mL

O=C(CSc1nc2ccccc2s1)c1ccccc1
MIC (Pseudomonas aeruginosa [6]): > 128 µg/mL

COc1cc(/C=C/c2cn(Cc3ccccc3)nn2)c(C(=O)O)c(O)c1CC=C(C)C
Activity (Pseudomonas aeruginosa [7]): 51.38%

O=C(CNc1ccc(C(=O)/C=C/c2ccc(Cl)cc2)cc1)N[C@@H]1CCOC1=O
IC50 [8]: 46.8 µM

O=C(CNc1ccc(C(=O)/C=C/c2ccc(Cl)c(Cl)c2)cc1)N[C@@H]1CCOC1=O
IC50 [8]: 46.8 µM

O=C(CCCCCOc1ccc(Cl)cc1)NNC(=O)Cn1c(=O)oc2ncccc21
MIC (Bacillus subtilis): > 512 µg/mL | MIC (Staphylococcus aureus [9]): > 512 µg/mL | MIC (Staphylococcus aureus [10]): > 512 µg/mL | MIC (Escherichia coli): > 512 µg/mL | MIC (Pseudomonas aeruginosa [11]): > 512 µg/mL | MIC (Bacillus pumilus): > 512 µg/mL

COc1ccc(OCCCCCCC(=O)NNC(=O)Cn2c(=O)oc3ncccc32)cc1
MIC (Bacillus subtilis): > 512 µg/mL | MIC (Staphylococcus aureus [9]): > 512 µg/mL | MIC (Staphylococcus aureus [10]): > 512 µg/mL | Activity (Pseudomonas aeruginosa [12]): 6.34% | MIC (Escherichia coli): > 512 µg/mL | MIC (Pseudomonas aeruginosa [11]): > 512 µg/mL | MIC (Bacillus pumilus): > 512 µg/mL

N#CCc1ccc(OCC(=O)Cn2cnc3ccc(Cl)cc3c2=O)cc1
IC50 (Pseudomonas aeruginosa [4]): 4.3 µM

O=C(CSc1ccc2ccccc2n1)c1ccc2c(c1)OCCO2
MIC (Pseudomonas aeruginosa [6]): > 128 µg/mL

O=C(CNc1ccc(C(=O)/C=C/c2ccccc2)cc1)N[C@@H]1CCOC1=O
IC50 [8]: 62.5 µM

N#CCc1ccc(OC[C@@H](O)Cn2cnc3ccc(Cl)cc3c2=O)cc1
IC50 [3]: 7 µM | IC50 (Pseudomonas aeruginosa [4]): 4.3 µM | Activity (Pseudomonas aeruginosa [13]): 95%

O=C(CNc1ccc(C(=O)/C=C/c2ccc(Br)cc2)cc1)N[C@@H]1CCOC1=O
IC50 [8]: 46.8 µM

O=[N+]([O-])c1ccc(CNCCCCCCCCNc2ccnc3cc(Cl)ccc23)cc1
MIC (Pseudomonas aeruginosa [1]): > 2 µM | Activity (Pseudomonas aeruginosa [2]): 97%

O=C(CSC1=NC2C=C([N+](=O)[O-])C=CC2=N1)Cc1ccc(Br)cc1 (stereo not given)
MIC (Pseudomonas aeruginosa [6]): > 512 µg/mL

COc1ccc(OCCCCCC(=O)NN2C(=O)CN(c3ccccc3O)C2=O)cc1
Activity (Pseudomonas aeruginosa [14]): 61% | MIC (Bacillus subtilis): > 512 µg/mL | MIC (Staphylococcus aureus [10]): > 512 µg/mL | MIC (Escherichia coli): > 512 µg/mL | MIC (Pseudomonas aeruginosa [11]): > 512 µg/mL | MIC (Bacillus pumilus): > 512 µg/mL

O=Cc1ccc(O)c(O)c1 [PROTOCATECHUALDEHYDE]
Activity (Pseudomonas aeruginosa [5]): 18%

COc1cccc(/C=C/C(=O)c2ccc(NCC(=O)N[C@@H]3CCOC3=O)cc2)c1
IC50 [8]: 56.5 µM

COc1cc(O)c(C(=O)O)c(/C=C/c2ccc(S(F)(F)(F)(F)F)cc2)c1
Activity (Pseudomonas aeruginosa [7]): 18.95%

O=c1cc(-c2ccc(O)c(O)c2)oc2cc(O)c([C@@H]3O[C@H](CO)[C@@H](O)[C@H](O)[C@H]3O)c(O)c12 [ISOORIENTIN]
Activity (Pseudomonas aeruginosa [5]): 18%

O=C(CNc1ccc(C(=O)/C=C/c2ccc(F)cc2)cc1)N[C@@H]1CCOC1=O
IC50 [8]: 46.8 µM

O=C(CNc1ccc(C(=O)/C=C/c2ccccc2Br)cc1)N[C@@H]1CCOC1=O
IC50 [8]: 37.6 µM

CC(=O)NCCCCCCCCNc1ccnc2cc(Cl)ccc12
MIC (Pseudomonas aeruginosa [1]): > 2 µM | Activity (Pseudomonas aeruginosa [2]): 42%

COc1ccc(OCCCCC(=O)NNC(=O)Cn2c(=O)oc3ncccc32)cc1
MIC (Bacillus subtilis): > 512 µg/mL | MIC (Staphylococcus aureus [9]): > 512 µg/mL | MIC (Staphylococcus aureus [10]): > 512 µg/mL | MIC (Escherichia coli): > 512 µg/mL | MIC (Pseudomonas aeruginosa [11]): > 512 µg/mL | MIC (Bacillus pumilus): > 512 µg/mL

N#CCc1ccc(OCC(O)Cn2cnc3ccc(Cl)cc3c2=O)c(F)c1 (stereo not given)
IC50 (Pseudomonas aeruginosa [4]): 2.2 µM

COc1cc(/C=C/c2cccc3cccnc23)c(C(=O)O)c(O)c1CC=C(C)C
Activity (Pseudomonas aeruginosa [7]): 35.61%

O=C(CSc1nc2ccccc2s1)c1ccc(Cl)c(Cl)c1
MIC (Pseudomonas aeruginosa [6]): > 128 µg/mL

COc1cc(/C=C/c2cncnc2)c(C(=O)O)c(O)c1CC=C(C)C
Activity (Pseudomonas aeruginosa [7]): 36.11%

COc1ccccc1C(=O)CSc1ccc2ccccc2n1
MIC (Pseudomonas aeruginosa [6]): > 128 µg/mL

COc1cc(/C=C/c2ccc(S(F)(F)(F)(F)F)cc2)c(C(=O)O)c(O)c1CC=C(C)C
Activity (Pseudomonas aeruginosa [7]): 50%

O=C(CCCCCOc1cccc(C(F)(F)F)c1)NN1C(=O)CN(c2ccccc2O)C1=O
Activity (Pseudomonas aeruginosa [14]): 38.62% | MIC (Bacillus subtilis): > 512 µg/mL | MIC (Staphylococcus aureus [10]): > 512 µg/mL | MIC (Escherichia coli): > 512 µg/mL | MIC (Bacillus pumilus): > 512 µg/mL

O=C(CCCCCOc1ccc(F)cc1)NN1C(=O)CN(c2ccccc2O)C1=O
Activity (Pseudomonas aeruginosa [14]): 61% | MIC (Bacillus subtilis): > 512 µg/mL | MIC (Staphylococcus aureus [10]): > 512 µg/mL | MIC (Escherichia coli): > 512 µg/mL | MIC (Pseudomonas aeruginosa [11]): > 512 µg/mL | MIC (Bacillus pumilus): > 512 µg/mL

COc1cc(/C=C/C2C(C)=NC(C)=CN2C)c(C(=O)O)c(O)c1CC=C(C)C (stereo not given)
Activity (Pseudomonas aeruginosa [7]): 59.68%

O=C(CNc1ccc(C(=O)/C=C/c2cc(Cl)cc(Cl)c2)cc1)N[C@@H]1CCOC1=O
IC50 [8]: 46.8 µM

CCCCCCCCCCC(=O)NN1C(=O)CN(c2ccccc2O)C1=O
Activity (Pseudomonas aeruginosa [14]): 38.62% | MIC (Bacillus subtilis): > 512 µg/mL | MIC (Staphylococcus aureus [10]): > 512 µg/mL | Activity (Pseudomonas aeruginosa [12]): 2.76% | MIC (Escherichia coli): > 512 µg/mL | MIC (Pseudomonas aeruginosa [11]): > 512 µg/mL | MIC (Bacillus pumilus): > 512 µg/mL

N#CCc1ccc(OCC(F)Cn2cnc3ccc(Cl)cc3c2=O)cc1 (stereo not given)
IC50 (Pseudomonas aeruginosa [4]): 4.3 µM

Clc1ccc2c(NCCCCCCCCNCc3cc4ccccc4o3)ccnc2c1
MIC (Pseudomonas aeruginosa [1]): > 2 µM | Activity (Pseudomonas aeruginosa [2]): 97%

O=c1c(O[C@@H]2O[C@H](CO)[C@@H](O)[C@H](O)[C@H]2O)c(-c2ccc(O)c(O)c2)oc2cc(O)cc(O)c12 [ISOQUERCETIN]
Activity (Pseudomonas aeruginosa [5]): 18%

COc1cc(/C=C/c2cncs2)c(C(=O)O)c(O)c1CC=C(C)C
Activity (Pseudomonas aeruginosa [7]): 21.06%

COc1ccc(C(=O)CSc2ccc3ccccc3n2)c(OC)c1
MIC (Pseudomonas aeruginosa [6]): > 128 µg/mL

COc1cc(C(=O)CSc2ccc3ccccc3n2)ccc1O
MIC (Pseudomonas aeruginosa [6]): > 128 µg/mL

O=C(CCCCCOc1ccc(C(F)(F)F)cc1)NN1C(=O)CN(c2ccccc2O)C1=O
Activity (Pseudomonas aeruginosa [14]): 38.62% | MIC (Bacillus subtilis): > 512 µg/mL | MIC (Staphylococcus aureus [10]): > 512 µg/mL | MIC (Escherichia coli): > 512 µg/mL | MIC (Pseudomonas aeruginosa [11]): > 512 µg/mL | MIC (Bacillus pumilus): > 512 µg/mL

O=C(CCCCCOc1ccc([N+](=O)[O-])cc1)NNC(=O)Cn1c(=O)oc2ncccc21
MIC (Bacillus subtilis): > 512 µg/mL | MIC (Staphylococcus aureus [9]): > 512 µg/mL | MIC (Staphylococcus aureus [10]): > 512 µg/mL | MIC (Escherichia coli): > 512 µg/mL | MIC (Pseudomonas aeruginosa [11]): > 512 µg/mL | MIC (Bacillus pumilus): > 512 µg/mL

FC(F)(F)c1ccc(CNCCCCCCCCNc2ccnc3cc(Cl)ccc23)cc1
MIC (Pseudomonas aeruginosa [1]): > 2 µM | Activity (Pseudomonas aeruginosa [2]): 97%

O=C(CNc1ccc(C(=O)/C=C/c2ccccc2Cl)cc1)N[C@@H]1CCOC1=O
IC50 [8]: 67.8 µM

O=C(CNc1ccc(C(=O)/C=C/c2ccc(Br)cc2F)cc1)N[C@@H]1CCOC1=O
IC50 [8]: 26.5 µM

COc1cc(/C=C/c2ccc(C#N)cc2F)c(C(=O)O)c(O)c1CC=C(C)C
Activity (Pseudomonas aeruginosa [7]): 19.43%

O=C(CCCCCOc1ccc(C(F)(F)F)cc1)NNC(=O)Cn1c(=O)oc2ncccc21
Activity (Pseudomonas aeruginosa [14]): 53.1% | MIC (Bacillus subtilis): > 512 µg/mL | MIC (Staphylococcus aureus [9]): > 512 µg/mL | MIC (Staphylococcus aureus [10]): > 512 µg/mL | MIC (Escherichia coli): > 512 µg/mL | MIC (Pseudomonas aeruginosa [11]): > 512 µg/mL | MIC (Bacillus pumilus): > 512 µg/mL

Cc1ccc(OCCCCCC(=O)NN2C(=O)CN(c3ccccc3O)C2=O)cc1
Activity (Pseudomonas aeruginosa [14]): 61% | MIC (Bacillus subtilis): > 512 µg/mL | MIC (Staphylococcus aureus [10]): > 512 µg/mL | MIC (Escherichia coli): > 512 µg/mL | MIC (Pseudomonas aeruginosa [11]): > 512 µg/mL | MIC (Bacillus pumilus): > 512 µg/mL

COc1cc(O)c(C(=O)O)c(CCc2ccc(S(F)(F)(F)(F)F)cc2)c1
Activity (Pseudomonas aeruginosa [7]): 19.48%

Clc1ccc2c(NCCCCCCCCNCc3cc4ccccc4s3)ccnc2c1
MIC (Pseudomonas aeruginosa [1]): > 2 µM | Activity (Pseudomonas aeruginosa [2]): 97%

N#CCc1ccc(OCC(O)Cn2cnc3ccc(Cl)cc3c2=O)cc1F (stereo not given)
IC50 (Pseudomonas aeruginosa [4]): 6.4 µM

O=c1c(O[C@@H]2O[C@H](CO)[C@H](O)[C@H](O)[C@H]2O)c(-c2ccc(O)c(O)c2)oc2cc(O)cc(O)c12 [HYPEROSIDE]
Activity (Pseudomonas aeruginosa [5]): 18%

Clc1ccc2c(NCCCCCCCCNCc3ncc[nH]3)ccnc2c1
MIC (Pseudomonas aeruginosa [1]): > 2 µM | Activity (Pseudomonas aeruginosa [2]): 97%
